“And” between values parts separate entries of the source, which are not always exact repeats. Identical values can stand only once.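 How tested: cells in 96-well plates exposed to compound for 48 hours at five concentrations. GI50 is the concentration that inhibits growth by half. TGI is the concentration that stops growth completely.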 *1 amine or outer side, *2 acyl side, *3 side chain or, on linkers, in order; H or OH if unused. Where a SMILES comes first, the peptide text is derived from it. [ ]: non-standard residue; d: D form. The star is where a group is joined. X31 = CC(=O)N(C)SCC(N[*:1])C(=O)[*:2]; Fmoc = O=C(OCC1c2ccccc2-c2ccccc21)*; For = O=C*
Tests used:
Experiment in all cases: growth of human tumour cells (NCI), 48 h
MDA-N = system: MDA-N
NCI-H460 lung = system: NCI-H460 lung
SNB-75 CNS = system: SNB-75 CNS
A498 renal = system: A498 renal

| SMILES | TGI (MDA-N) [µM] | TGI (NCI-H460 lung) [µM] | TGI (SNB-75 CNS) [µM] | TGI (A498 renal) [µM] | GI50 (MDA-N) | GI50 (NCI-H460 lung) |
| --- | --- | --- | --- | --- | --- | --- |
| CC(Cc1ccc2c(c1)OCO2)N(C)C(=O)C1=CCN(C)CC1 (stereo not drawn) | > 100 | > 100 | > 100 | – | – | – |
| CC(=O)NC(CO)C(=O)NC(Cc1ccc(O)cc1)C(=O)NCC(N)=O (stereo not drawn) (Ac-Ser-Tyr-Gly-NH2; configuration not given here) | > 100 | > 100 | > 100 | > 100 | – | – |
| CCOC(=O)NC(=S)NC(C)c1ccccc1 (stereo not drawn) | > 100 | – | > 100 | – | – | – |
| CCOP(=O)(OCC)C(=C1C=C(C(C)(C)C)C(=O)C(C(C)(C)C)=C1)P(=O)(OCC)OCC | > 9.4 | > 10 | > 10 | > 10 | – | – |
| CSc1nc(-c2ccc(Cl)cc2)c(C#N)c(=O)[nH]1 | – | > 100 | > 100 | > 100 | – | – |
| CC(=O)Nc1nnc(S(=O)(=O)NC(=S)Nc2ccc(Cl)cc2)s1 | > 100 | > 100 | > 100 | > 100 | – | – |
| N#CCN(Cc1ccccc1)[C@@H]1CCC[C@]1(O)C#Cc1ccc2c(c1)OCO2 | 34.2 | 36.1 | > 100 | 35.1 | – | – |
| CC1=C(C)C(=O)C(C2=C(C3=CC(=O)C(C)=C(C)C3=O)C(=O)c3ccccc3C2=O)=CC1=O | 3.6 | 37.7 | 19.6 | 18.4 | – | – |
| CCOC(=O)c1c(NC(=O)c2ccc(Br)cc2)sc2c1CCCC2 | > 100 | 20 | – | > 100 | – | – |
| Cn1nc(C(=O)N2CC(CCl)c3c2cc([N+](=O)[O-])c2ccccc32)cc1NC(=O)Nc1cc(C(=O)N2CC(CCl)c3c2cc([N+](=O)[O-])c2ccccc32)nn1C (stereo not drawn) | > 100 | > 100 | > 100 | > 100 | – | – |
| CC(C)(C)N=c1n(C(C)(C)C)oc(=O)n1-c1ccccc1 | > 50 | > 50 | > 50 | > 50 | – | – |
| CC1(C)CC2(C)ON=C(c3ccccc3)N2c2ccccc2N1 (stereo not drawn) | 47.9 | 46.9 | 94.9 | 54.4 | – | – |
| CSc1nc(C)c(CCCl)c(Cl)n1 | > 100 | > 100 | > 100 | > 100 | – | – |
| Cc1nc(Nc2nc3ccccc3[nH]2)[nH]c(=O)c1CCO | > 100 | > 100 | > 100 | > 100 | – | – |
| CC(C)OP(=O)(OC(C)C)C(Nc1cccc(C(F)(F)F)c1)c1ccccc1 (stereo not drawn) | > 100 | > 100 | > 100 | > 100 | – | – |
| COc1cccc(C(=O)N[C@@H]2[C@H](O)[C@@H](CO)O[C@H]2n2cnc3c(N)ncnc32)c1 | > 100 | > 100 | > 100 | > 100 | – | – |
| CC(=O)C1C(=O)C(=O)N(c2ccc(Br)cc2)C1=O (stereo not drawn) | > 100 | > 100 | > 100 | – | – | – |
| O=[N+]([O-])c1ccc2[nH]c(O)c(N=NC(=S)Nc3ccccc3)c2c1 | 21.7 | 14.5 | 21.5 | 13.2 | – | – |
| NCCC1([N+](=O)[O-])CCNCC1 | > 100 | > 100 | > 100 | > 100 | – | – |
| Nc1cc(N)c(N=Nc2cccc3c(S(=O)(=O)O)cccc23)cc1N=Nc1cc([N+](=O)[O-])ccc1O | > 100 | 74.1 | > 100 | > 100 | – | – |
| CCc1n[nH]c(=S)n1/N=C\c1ccc(-c2ccccc2[N+](=O)[O-])o1 | 39.2 | – | > 100 | > 100 | – | – |
| C=C(CC)C[C@@H]1C[C@]2(C(=O)OC)c3[nH]c4ccccc4c3CCN2C1=O | 35.5 | 53.6 | 66.2 | 41.1 | – | – |
| O=C1C(NS(=O)(=O)c2ccccc2)=C(N(Cc2ccccc2)Cc2ccccc2)C(=O)c2ccccc21 | > 100 | > 100 | > 100 | – | – | – |
| COC(=O)C1(C)OC(C)=NC1(C(=O)OC)C(=O)OC (stereo not drawn) | > 100 | > 100 | > 100 | > 100 | – | – |
| C[N+]12CCCCC1C(CN1C(=O)c3ccccc3C1=O)CCC2 (stereo not drawn) | > 100 | > 100 | > 100 | > 100 | – | – |

| SMILES | TGI (MDA-N) [µM] | TGI (NCI-H460 lung) [µM] | TGI (SNB-75 CNS) [µM] | TGI (A498 renal) [µM] | GI50 (MDA-N) | GI50 (NCI-H460 lung) |
| --- | --- | --- | --- | --- | --- | --- |
| CCCCCCC(=O)OC[n+]1cccc(-c2c(COC(=O)NC(C)C)c(COC(=O)NC(C)C)c3n2CCC3)c1 | > 100 | > 100 | > 100 | 44.9 | – | – |
| COC(=O)[C@@H]1[C@H](O)CC[C@H]2[C@@]1(C)CC[C@@H](C)[C@]2(COC(C)=O)CC(=O)c1ccoc1 | > 50 | > 50 | > 50 | > 50 | – | – |
| O=C1Nc2ccc(Br)cc2/C1=C/C(=O)c1ccccc1 | – | 36.9 | 32 | 34.6 | – | – |
| COc1ccccc1Cn1[nH]c(=O)c2cc([N+](=O)[O-])ccc21 | > 100 | > 100 | > 100 | > 100 | – | – |
| CC(=O)Oc1cc(S(=O)(=O)Nc2n[nH]c(N)n2)c(S)cc1Cl | > 100 | > 100 | – | > 100 | – | – |
| COC(=O)C1=NN2c3ccccc3CN([C@@H](C)c3ccccc3)C(=O)[C@H]2[C@@H]1C | > 100 | > 100 | 95 | > 100 | – | – |
| O=c1c(Sc2ncccn2)c(Sc2ncccn2)cnn1CCl | 5.59 | 32.9 | 34.6 | 36.3 | – | – |
| COc1ccc(N2C(=O)C3c4[nH]c5ccc(OCc6ccccc6)cc5c4C4CCC(C(C)C)CC4C3C2=O)cc1 (stereo not drawn) | > 100 | > 45.8 | 10.4 | 25.4 | – | – |
| CN(C)C(=O)Oc1ccc(C(=S)Nc2ccccc2)cc1Br | 57.4 | > 100 | – | – | – | – |
| CC1=C(C(=O)NC(C)(C)C)CC(C(=O)NC(C)(C)C)C(C)N1 (stereo not drawn) | > 100 | > 100 | > 100 | > 100 | – | – |
| CN1CCCC(C(=O)OCC(=O)C2(O)CCC3C4CCC5=CC(=O)CCC5(C)C4C(O)CC32C)C1 (stereo not drawn) | 26.8 | 28.5 | 17.5 | 31.6 | – | – |
| O=C(Nc1ccc(S(=O)(=O)Nc2ncccn2)cc1)c1c2ccccc2nc2ccccc12 | > 100 | > 100 | > 100 | > 100 | – | – |
| O=C(O)CO/N=C1/C(c2c(O)[nH]c3ccccc23)=Nc2ccccc21 | > 100 | > 100 | 74.4 | > 100 | – | – |
| CC(=O)NC1C(OCc2ccccc2)OC(CO)C(O)C1OCC(=O)N1CCCC1C(=O)NC(CCC(=O)NCCCCCNc1c2ccccc2nc2cccc([N+](=O)[O-])c12)C(N)=O (stereo not drawn) | 0.0499 | 0.0171 | 0.479 | 0.345 | – | – |
| CCSC12CC3c4cccc5c4C(CN5C(=O)c4ccccc4)CC3(O1)N(C)C2=O (stereo not drawn) | 81.6 | > 100 | > 100 | > 100 | – | – |
| O=C(O)CCc1nc2cc3ccccc3cc2[nH]c1=O | > 100 | > 100 | > 100 | > 100 | – | – |
| Oc1ccccc1-n1nc2ccc3nonc3c2n1 | > 100 | > 100 | > 100 | – | – | – |
| CC(Nc1n[nH]c(=O)c2c1nnn2Cc1ccccc1)c1ccccc1 (stereo not drawn) | > 100 | > 100 | – | – | > 100 µM and 32.3 µM | > 100 µM and 31 µM |
| S=C(Nc1cccc(C2(N3CCCCC3)CCCCC2)c1)Nc1cccc(C2(N3CCCCC3)CCCCC2)c1 | 33.8 | 36.7 | 28.6 | 35.1 | – | – |
| c1cc(C[S+]2CCCC2)oc1C[S+]1CCCC1 | > 100 | > 100 | > 100 | > 100 | – | – |
| CC[C@H](C)[C@H]1NC(=O)[C@@H](NC(=O)[C@@H](CC(C)C)N(C)C(=O)C2CCCN2C(=O)[C@H](C)O)[C@@H](C)OC(=O)[C@H](Cc2ccccc2)N(C)C(=O)[C@@H]2CCCN2C(=O)[C@H](CC(C)C)NC(=O)[C@@H](C)C(=O)[C@H](C(C)C)OC(=O)C[C@@H]1O (stereo partly drawn) | 0.109 | < 0.00625 | < 0.00625 | 0.0508 | – | – |
| C=CC[C@H]1[C@H](O[Si](C)(C)C(C)(C)C)C=CC(=O)[C@@H]1CC(=O)OCC | 29.1 | 27.6 | 30.1 | 26.6 | – | – |
| NCCCCCNOCCCN | > 100 | > 100 | > 100 | – | – | – |
| COc1cc2c(cc1OCCCCN1CCN(CCCCOc3cc4c(cc3OC)C(=O)N3CCC[C@H]3C=N4)CC1)N=C[C@@H]1CCCN1C2=O | – | > 32 | – | 0.0692 | – | – |
| CC(=O)N(C)SCC(NC(=O)C(Cc1ccccc1)NC(=O)OCC1c2ccccc2-c2ccccc21)C(=O)NC(Cc1ccccc1)C(=O)NC(Cc1cn(C=O)c2ccccc12)C(=O)NC(CCCCNC(=O)OCC1c2ccccc2-c2ccccc21)C(=O)NC(C(=O)NC(CSN(C)C(C)=O)C(=O)NC(C(N)=O)C(C)O)C(C)O (stereo not drawn) (Fmoc-F[X31]FW(For)K(Fmoc)T[X31]T-NH2; configuration not given here) | > 100 | > 100 | > 100 | – | – | – |
